Numbers after ± are expanded uncertainties.
Conditions: Crystal; visual observation

Normal melting temperature: 71.7 ± 1.1 °C
Structure (SMILES): CC=CC(=O)O [2-butenoic acid]

— the NIST ThermoML archive (doi:10.1016/j.fluid.2013.06.038)
